A short description of series [1]: Co-incubation of methocarbamol and CTG06-05 in rat liver microsomes (1/1). To be noted: co-incubated 1/1, FIG. 1. It counts as in vitro ADME. An excerpt: Differentiation in drug elimination half-lives. […] The elimination half-life (T1/2) is the time it takes for the elimination processes to reduce the concentration level or the amount of drug in the system by 50%. Elimination half-life is a composite pharmacokinetic parameter determined by both clearance and volume of distribution (Vd). Elimination half-life is increased by an increase in volume of distribution or a decrease in clearance, and vice versa.
Preparation of Reaction Mixture: The microsome reaction mixtures were prepared as follows: for a total volume of 285 μL of reaction mixture, 274.5 μL of 1×PBS, 3 μL of the test compound, and 7.5 μL of 5 mg/mL microsomes were added. As a negative control, microsome-free samples were prepared by substituting the microsome solution in the reaction mixture with an equal volume of 1×Phosphate Buffer Solution (pH 7.4). The reaction mixture was prepared in triplicates. In addition, dextromethorphan was used in this assay as a positive control.
Incubation and Processing of Reaction: The reaction mixture was initiated by adding 10 μL of NADPH and incubated in a water bath at 37° C. […]
LC-MS/MS analysis: Reversed-phase liquid chromatographic separation was carried out using ACE 3 C18 column (50×2.1 mm id, 3 μm). […] Compounds were monitored in positive mode over a five-minute acquisition period using a triple quadrupole mass spectrometer. […]

The nature of series [2]: IV co-administration of CTG06-05 and methocarbamol (1:1) to mice, plasma concentrations by LC-MS/MS. It is filed as in vivo. To be noted: mouse plasma, 1/1 co-administration, IV 0.5 mg/kg each, FIG. 2. On the procedure: Example 2: Co-Administration of CTG06-05 and Methocarbamol (1:1) to Mice and LC-MS/MS Analysis of Mouse Plasma Samples
Mouse plasma samples were collected at intervals of 2, 7, 10, 15, 30, 45, and 60 minutes after an IV dose of CTG06-05 and methocarbamol at a 1:1 ratio (0.5 mg/kg each). Plasma samples were extracted via protein precipitation. The supernatant at each time point was transferred to a clean vial and analyzed by LC-MS/MS as described in Example 1.

A short description of series [3]: Co-administration of methocarbamol and CTG06-05 in rats, plasma time-concentration curves. It is filed as in vivo, rat. The text has this:
Differentiation in drug toxicity profiles. Methocarbamol and CTG06-05 were co-administered in rats and plasma samples were collected at various timepoints. […] This indicates a distinct toxicity profile for CTG06-05 compared to methocarbamol, particularly when the toxicity is driven by Cmax. Cmax is the maximum (or peak) plasma concentration that a drug achieves in a specified compartment or test area of the body after the drug has been administered.
Differentiation in drug distribution volumes. Concentration ratios of CTG06-05 to methocarbamol in rat plasma samples from the aforementioned experiment were determined. […] Drug distribution volume (Vd) is defined as the total amount of drug in the body divided by its concentration in plasma. Vd reflects the degree to which the drug is present in extravascular tissues rather than in the plasma. Therefore, when the total amount of drug is the same, for example, 1:1 co-administration, drug plasma concentration is a direct parameter in Vd comparison. In other words, the higher the concentration, the lower the Vd.

Series [4] can be described thus: Administration of CTG06-06 and methocarbamol to rats, LC-MS/MS of urine for parent drug and conjugates. It is filed as in vivo. As to conditions: rat urine. The text has this: Differentiation in drug conjugation reactions. […] […] Conjugation is a phase II metabolism reaction in which an acid, for example, glucuronic acid, acts as a conjugating agent to link to a phase I metabolite covalently. The conjugate so formed would be excreted to urine. To most drugs, this is a necessary detoxicating process. As for methocarbamol, this could be a disadvantage because the acid directly forms a conjugate with the drug itself, not its metabolite, and thus, to reduce drug plasma concentration level immediately after administration. This is due to the presence of an OH group in the chemical structure of methocarbamol, which readily allows it to form conjugates with an acid. To inhibit this pathway, CTG06-06 was designed with the OH group replaced by a fluorine (F). This modification is anticipated to slow the drug elimination rate while maintaining a consistently high drug plasma concentration.
Example 3: Co-Administration of CTG06-06 and Methocarbamol (1:1) to Rats and LC-MS/MS Analysis of Rat Urine Samples
Rat urine samples were collected after an oral dose of CTG06-06 and methocarbamol at 1:1 ratio (0.5 mg/kg each).

Another series deals with liver. To be noted: in vivo; cited from earlier work.
For series [5] the following is noted: oral; cited from earlier work.
In series [6] the test system is skeletal muscle contractility or motor nerve fiber. As to conditions: cited from earlier work.

This is an account of results in patent US20250100961A1, “CHEMICAL ENTITIES FOR TREATING ACUTE MUSCULOSKELETAL PAIN, NON-SPECIFIC LOW-BACK PAIN, INFLAMMATORY ARTHRITIS RELATED DISEASES AND CONDITIONS, AND COMPOSITIONS AND METHODS THEREOF” (X-Cutag Therapeutics (Suzhou) Limited, priority 2023, published 2025).

Structures are written as SMILES.

On to `[2H]c1c([2H])c([2H])c(OC([2H])([2H])[2H])c(OCC(O)COC(N)=O)c1[2H]` (stereo not drawn) [CTG06-05], for which, in series [1], the “drug elimination half-life compared to methocarbamol” value is “longer drug elimination half-life compared to methocarbamol”. For the same compound, in series [2], the “C0 compared to methocarbamol” value is listed as “lower C0” and the “T1/2 compared to methocarbamol” value is listed as “longer T1/2”. In addition, the “drug distribution volume (Vd) compared to methocarbamol” value in series [3] (inferred from plasma concentrations after 1:1 co-administration) is listed as “lower Vd value than methocarbamol”. Moreover, the “initial concentration in plasma compared to methocarbamol” value in series [3] (rat plasma, co-administered, FIG. 2) was “lower than that of methocarbamol”. Further, in series [3] (rat plasma, co-administered, FIG. 3), the “concentration ratio of CTG06-05 to methocarbamol in plasma” value is “increased with time”. Besides, in series [3] (rat plasma, co-administered, later timepoints, FIG. 2), the “later concentration in plasma compared to methocarbamol” value is given as “eventually exceeded that of methocarbamol”.

For `COc1ccccc1OCC(F)COC(N)=O` (stereo not drawn) [CTG06-06], the drug conjugation reaction result in series [4] (separate administration (FIG. 4 legend)) is “eliminates the drug conjugation reaction in rats”.

`COc1ccccc1OCC(O)COC(N)=O` (stereo not drawn) [methocarbamol]: the “conjugates of the drug in urine” value in series [4] (co-administered, oral 0.5 mg/kg each, LC-MS/MS, FIG. 4) was “methocarbamol and its conjugates were detected”. Also, in the series with liver, the liver toxicity result was “No liver toxicity is observed”. For the same compound, in series [5], the “time to peak plasma concentration” value is “two”. Also, the “direct effect on skeletal muscle contractility or motor nerve fiber” value in series [6] is reported as “no direct effect”.
